Values after ≈ are worked out from the molar mass of the structure shown.
Tests used:
Format in all cases: functional
Escherichia coli = assay: Compound was tested for antibacterial activity against Escherichia coli organism
Pseudomonas = assay: Compound was tested for antibacterial activity against Pseudomonas organism
Staphylococcus = assay: Compound was tested for antibacterial activity against Staphylococcus organism

| Compound | MIC (Escherichia coli) [µg/mL] | MIC (Pseudomonas) [µg/mL] | MIC (Staphylococcus) [µg/mL] |
| --- | --- | --- | --- |
| CC(C)CCCCC(=O)N[C@@H](CCN)C(=O)N[C@H](C(=O)N[C@@H](CCN)C(=O)N[C@H]1CCNC(=O)[C@H]([C@@H](C)O)NC(=O)[C@H](CCNC(=O)CCl)NC(=O)[C@H](CCN)NC(=O)[C@H](CC(C)C)NC(=O)[C@@H](Cc2ccccc2)NC(=O)[C@H](CCN)NC1=O)[C@@H](C)O | 0.454 (≈ 0.359 µM) | 0.085 (≈ 0.0671 µM) | 9.5 (≈ 7.5 µM) |
| CCN(CC)CC[C@@H]1NC(=O)[C@H](CCN)NC(=O)[C@H](CC(C)C)NC(=O)[C@@H](Cc2ccccc2)NC(=O)[C@H](CCN)NC(=O)[C@@H](NC(=O)[C@H](CCN)NC(=O)[C@@H](NC(=O)[C@H](CCN)NC(=O)CCCCC(C)C)[C@@H](C)O)CCNC(=O)[C@H]([C@@H](C)O)NC1=O | 0.995 (≈ 0.799 µM) | 0.763 (≈ 0.613 µM) | 9.5 (≈ 7.63 µM) |
| CC(C)CCCCC(=O)N[C@@H](CCN)C(=O)N[C@H](C(=O)N[C@@H](CCN)C(=O)N[C@H]1CCNC(=O)[C@H]([C@@H](C)O)NC(=O)[C@H](CCNC(=O)[C@@H](N)CCCCN)NC(=O)[C@H](CCN)NC(=O)[C@H](CC(C)C)NC(=O)[C@@H](Cc2ccccc2)NC(=O)[C@H](CCN)NC1=O)[C@@H](C)O | 0.173 (≈ 0.131 µM) | 0.032 (≈ 0.0243 µM) | 2.8 (≈ 2.13 µM) |
| CCNCC[C@H](NC(=O)CCCCC(C)C)C(=O)N[C@H](C(=O)N[C@@H](CCN)C(=O)N[C@H]1CCNC(=O)[C@H]([C@@H](C)O)NC(=O)[C@H](CCN)NC(=O)[C@H](CCN)NC(=O)[C@H](CC(C)C)NC(=O)[C@@H](Cc2ccccc2)NC(=O)[C@H](CCN)NC1=O)[C@@H](C)O | 0.112 (≈ 0.092 µM) | 0.146 (≈ 0.12 µM) | 2.3 (≈ 1.89 µM) |
| CSCC[C@H](N)C(=O)NCC[C@@H]1NC(=O)[C@H](CCN)NC(=O)[C@H](CC(C)C)NC(=O)[C@@H](Cc2ccccc2)NC(=O)[C@H](CCN)NC(=O)[C@@H](NC(=O)[C@H](CCN)NC(=O)[C@@H](NC(=O)[C@H](CCN)NC(=O)CCCCC(C)C)[C@@H](C)O)CCNC(=O)[C@H]([C@@H](C)O)NC1=O | 0.77 (≈ 0.583 µM) | 0.416 (≈ 0.315 µM) | 5.65 (≈ 4.28 µM) |
| CC(C)CCCCC(=O)N[C@@H](CCNC(=O)[C@@H](N)CCCN=C(N)N)C(=O)N[C@H](C(=O)N[C@@H](CCN)C(=O)N[C@H]1CCNC(=O)[C@H]([C@@H](C)O)NC(=O)[C@H](CCN)NC(=O)[C@H](CCN)NC(=O)[C@H](CC(C)C)NC(=O)[C@@H](Cc2ccccc2)NC(=O)[C@H](CCN)NC1=O)[C@@H](C)O | 0.453 (≈ 0.337 µM) | 0.207 (≈ 0.154 µM) | 4.48 (≈ 3.33 µM) |
| CC(C)CCCCC(=O)N[C@@H](CCN)C(=O)N[C@H](C(=O)N[C@@H](CCN)C(=O)N[C@H]1CCNC(=O)[C@H]([C@@H](C)O)NC(=O)[C@H](CCNC(=O)C(Cl)Cl)NC(=O)[C@H](CCN)NC(=O)[C@H](CC(C)C)NC(=O)[C@@H](Cc2ccccc2)NC(=O)[C@H](CCN)NC1=O)[C@@H](C)O | 1.54 (≈ 1.18 µM) | 0.995 (≈ 0.765 µM) | 0.82 (≈ 0.631 µM) |
| CC(C)CCCCC(=O)N[C@@H](CCN)C(=O)N[C@H](C(=O)N[C@@H](CCN)C(=O)N[C@H]1CCNC(=O)[C@H]([C@@H](C)O)NC(=O)[C@H](CCN(CC(=O)O)CC(=O)O)NC(=O)[C@H](CCN)NC(=O)[C@H](CC(C)C)NC(=O)[C@@H](Cc2ccccc2)NC(=O)[C@H](CCN)NC1=O)[C@@H](C)O | 1.19 (≈ 0.911 µM) | 0.318 (≈ 0.244 µM) | 22.6 (≈ 17.3 µM) |
| CCN(CC)CC[C@H](NC(=O)CCCCC(C)C)C(=O)N[C@H](C(=O)N[C@@H](CCN)C(=O)N[C@H]1CCNC(=O)[C@H]([C@@H](C)O)NC(=O)[C@H](CCN)NC(=O)[C@H](CCN)NC(=O)[C@H](CC(C)C)NC(=O)[C@@H](Cc2ccccc2)NC(=O)[C@H](CCN)NC1=O)[C@@H](C)O | 0.208 (≈ 0.167 µM) | 0.206 (≈ 0.165 µM) | 2.4 (≈ 1.93 µM) |
| CC(C)CCCCC(=O)N[C@@H](CCN)C(=O)N[C@H](C(=O)N[C@@H](CCN)C(=O)N[C@H]1CCNC(=O)[C@H]([C@@H](C)O)NC(=O)[C@H](CCNC(=O)[C@@H](N)CCC/N=C(/N)N[N+](=O)[O-])NC(=O)[C@H](CCN)NC(=O)[C@H](CC(C)C)NC(=O)[C@@H](Cc2ccccc2)NC(=O)[C@H](CCN)NC1=O)[C@@H](C)O | 1.3 (≈ 0.935 µM) | 2.6 (≈ 1.87 µM) | 1.2 (≈ 0.863 µM) |
| CC(C)CCCCC(=O)N[C@@H](CCN)C(=O)N[C@H](C(=O)N[C@@H](CCN)C(=O)N[C@H]1CCNC(=O)[C@H]([C@@H](C)O)NC(=O)[C@H](CCNC(=O)CO)NC(=O)[C@H](CCN)NC(=O)[C@H](CC(C)C)NC(=O)[C@@H](Cc2ccccc2)NC(=O)[C@H](CCN)NC1=O)[C@@H](C)O | 1.54 (≈ 1.23 µM) | 1.53 (≈ 1.23 µM) | 22.6 (≈ 18.1 µM) |
| CC(=O)NCC[C@H](NC(=O)CCCCC(C)C)C(=O)N[C@H](C(=O)N[C@@H](CCN)C(=O)N[C@H]1CCNC(=O)[C@H]([C@@H](C)O)NC(=O)[C@H](CCN)NC(=O)[C@H](CCN)NC(=O)[C@H](CC(C)C)NC(=O)[C@@H](Cc2ccccc2)NC(=O)[C@H](CCN)NC1=O)[C@@H](C)O | 1.3 (≈ 1.06 µM) | 2.8 (≈ 2.27 µM) | 2.8 (≈ 2.27 µM) |
| CCNCC[C@@H]1NC(=O)[C@H](CCN)NC(=O)[C@H](CC(C)C)NC(=O)[C@@H](Cc2ccccc2)NC(=O)[C@H](CCN)NC(=O)[C@@H](NC(=O)[C@H](CCN)NC(=O)[C@@H](NC(=O)[C@H](CCN)NC(=O)CCCCC(C)C)[C@@H](C)O)CCNC(=O)[C@H]([C@@H](C)O)NC1=O | 0.492 (≈ 0.404 µM) | 0.413 (≈ 0.339 µM) | 9.5 (≈ 7.8 µM) |
| CCC(C)CCCCC(=O)NCC[C@@H]1NC(=O)[C@H](CCN)NC(=O)[C@H](CC(C)C)NC(=O)[C@@H](Cc2ccccc2)NC(=O)[C@H](CCN)NC(=O)[C@@H](NC(=O)[C@H](CCN)NC(=O)[C@@H](NC(=O)[C@H](CCN)NC(=O)CCCCC(C)C)[C@@H](C)O)CCNC(=O)[C@H]([C@@H](C)O)NC1=O (stereo partly drawn) | 3.1 (≈ 2.33 µM) | 2.18 (≈ 1.64 µM) | 0.7 (≈ 0.526 µM) |
| CC(C)CCCCC(=O)N[C@@H](CCN)C(=O)N[C@H](C(=O)N[C@@H](CCN)C(=O)N[C@H]1CCNC(=O)[C@H]([C@@H](C)O)NC(=O)[C@H](CCNC(=O)[C@@H](N)CS)NC(=O)[C@H](CCN)NC(=O)[C@H](CC(C)C)NC(=O)[C@@H](Cc2ccccc2)NC(=O)[C@H](CCN)NC1=O)[C@@H](C)O | 1.68 (≈ 1.3 µM) | 2.82 (≈ 2.18 µM) | 11.3 (≈ 8.75 µM) |
| CC(C)CCCCC(=O)N[C@@H](CCN)C(=O)N[C@H](C(=O)N[C@@H](CCN)C(=O)N[C@H]1CCNC(=O)[C@H]([C@@H](C)O)NC(=O)[C@H](CCN(C)C)NC(=O)[C@H](CCN)NC(=O)[C@H](CC(C)C)NC(=O)[C@@H](Cc2ccccc2)NC(=O)[C@H](CCN)NC1=O)[C@@H](C)O | 0.537 (≈ 0.441 µM) | 0.456 (≈ 0.375 µM) | 16 (≈ 13.1 µM) |

From ChEMBL document CHEMBL1130694, “Selective chemical modifications of polymyxin B” (Bioorg Med Chem Lett, 1998)
